Test results reported in paper PMC5218480 (PLoS ONE, 2017).

Tested on: MV-4-11 cells
Assay: Gene expression microarray analysis (Affymetrix PrimeView) and GSEA
Type: cell-based, human
Design: RFU PODN (11730768_x_at) / Fold change /veh PODN (11730768_x_at) / RFU LINC00158 (11744669_a_at) / Fold change /veh LINC00158 (11744669_a_at) / RFU DUSP10 (11751237_a_at) / Fold change /veh DUSP10 (11751237_a_at) / RFU ID3 (11757404_x_at) / Fold change /veh ID3 (11757404_x_at) / RFU PLEKHG5 (11737974_s_at) / Fold change /veh PLEKHG5 (11737974_s_at) / RFU LRRC4B (11730491_at) / Fold change /veh LRRC4B (11730491_at) / RFU GIMAP4 (11747438_a_at) / Fold change /veh GIMAP4 (11747438_a_at) / RFU KRT8 (11758183_x_at) / Fold change /veh KRT8 (11758183_x_at) / RFU CNN1 (11734310_a_at) / Fold change /veh CNN1 (11734310_a_at) / RFU VPS37D (11726825_at) / Fold change /veh VPS37D (11726825_at) / RFU C10orf10 (11716522_x_at) / Fold change /veh C10orf10 (11716522_x_at) / RFU KIR2DL2 /// KIR2DL4 /// KIR2DL5A /// KIR2DL5B /// KIR2DS1 /// KIR2DS2 /// KIR2DS3 /// KIR2DS4 /// KIR3DL3 /// KIR3DL3 /// KIR3DS1 (11738374_at) / Fold change /veh KIR2DL2 /// KIR2DL4 /// KIR2DL5A /// KIR2DL5B /// KIR2DS1 /// KIR2DS2 /// KIR2DS3 /// KIR2DS4 /// KIR3DL3 /// KIR3DL3 /// KIR3DS1 (11738374_at) / RFU C1QL1 (11718748_at) / Fold change /veh C1QL1 (11718748_at) / RFU TMPRSS4 (11747572_a_at) / Fold change /veh TMPRSS4 (11747572_a_at) / RFU HAMP (11756126_x_at) / Fold change /veh HAMP (11756126_x_at) / RFU RNFT2 (11725882_a_at) / Fold change /veh RNFT2 (11725882_a_at) / RFU NR4A2 (11747474_a_at) / Fold change /veh NR4A2 (11747474_a_at) / RFU ABCC12 (11746883_a_at) / Fold change /veh ABCC12 (11746883_a_at) / RFU TMEM136 (11760407_x_at) / Fold change /veh TMEM136 (11760407_x_at) / RFU CLDN22 /// WWC2 (11732394_at) / Fold change /veh CLDN22 /// WWC2 (11732394_at) / RFU HLA-DPB1 (11760878_x_at) / Fold change /veh HLA-DPB1 (11760878_x_at) / RFU SPINT1 (11716480_a_at) / Fold change /veh SPINT1 (11716480_a_at) / RFU GAP43 (11754022_s_at) / Fold change /veh GAP43 (11754022_s_at) / RFU A4GNT (11735810_at) / Fold change /veh A4GNT (11735810_at) / RFU PRB3 (11715151_x_at) / Fold change /veh PRB3 (11715151_x_at) / RFU TUBB4B (11761932_at) / Fold change /veh TUBB4B (11761932_at) / RFU CAPN14 (11732068_a_at) / Fold change /veh CAPN14 (11732068_a_at) / RFU TMCC2 (11721928_a_at) / Fold change /veh TMCC2 (11721928_a_at) / RFU IRGQ (11745062_a_at) / Fold change /veh IRGQ (11745062_a_at) / RFU FAM174B (11720279_a_at) / Fold change /veh FAM174B (11720279_a_at) / RFU TMPRSS4 (11748680_a_at) / Fold change /veh TMPRSS4 (11748680_a_at) / RFU FAM212B (11763350_a_at) / Fold change /veh FAM212B (11763350_a_at) / RFU PLEKHG5 (11743358_a_at) / Fold change /veh PLEKHG5 (11743358_a_at) / RFU ZSCAN30 (11745921_a_at) / Fold change /veh ZSCAN30 (11745921_a_at) / RFU CMKLR1 (11741424_a_at) / Fold change /veh CMKLR1 (11741424_a_at) / RFU LOC101060620 /// MAPK8IP1 (11723275_at) / Fold change /veh LOC101060620 /// MAPK8IP1 (11723275_at) / RFU SPTSSB (11747773_x_at) / Fold change /veh SPTSSB (11747773_x_at) / RFU PRSS12 (11739890_at) / Fold change /veh PRSS12 (11739890_at) / RFU BIN1 (11741810_x_at) / Fold change /veh BIN1 (11741810_x_at) / RFU WNT11 (11732464_a_at) / Fold change /veh WNT11 (11732464_a_at) / RFU C10orf10 (11716521_a_at) / Fold change /veh C10orf10 (11716521_a_at) / RFU C5orf56 (11738089_at) / Fold change /veh C5orf56 (11738089_at) / RFU CYB561 (11721691_x_at) / Fold change /veh CYB561 (11721691_x_at) / RFU ANKRD19P (11752326_a_at) / Fold change /veh ANKRD19P (11752326_a_at) / RFU OR2T12 /// OR2T33 /// OR2T8 (11738714_s_at) / Fold change /veh OR2T12 /// OR2T33 /// OR2T8 (11738714_s_at) / RFU VCAN (11748164_a_at) / Fold change /veh VCAN (11748164_a_at) / RFU JSRP1 (11732532_at) / Fold change /veh JSRP1 (11732532_at) / RFU KRTAP10-11 (11738290_x_at) / Fold change /veh KRTAP10-11 (11738290_x_at) / RFU MYO3A (11730013_a_at) / Fold change /veh MYO3A (11730013_a_at) / RFU EBF3 (11725865_a_at) / Fold change /veh EBF3 (11725865_a_at) / RFU CAMK2N1 (11719241_x_at) / Fold change /veh CAMK2N1 (11719241_x_at) / RFU C5orf56 (11738088_a_at) / Fold change /veh C5orf56 (11738088_a_at) / RFU OLFML3 (11715873_a_at) / Fold change /veh OLFML3 (11715873_a_at) / RFU LOC100653217 /// NTM (11731650_a_at) / Fold change /veh LOC100653217 /// NTM (11731650_a_at) / RFU MAPK11 (11762145_a_at) / Fold change /veh MAPK11 (11762145_a_at) / RFU FIZ1 (11724087_x_at) / Fold change /veh FIZ1 (11724087_x_at) / RFU OASL (11726364_x_at) / Fold change /veh OASL (11726364_x_at) / RFU SOX15 (11748057_x_at) / Fold change /veh SOX15 (11748057_x_at) / RFU CD79A (11719716_a_at) / Fold change /veh CD79A (11719716_a_at) / RFU HIST1H1D (11736915_at) / Fold change /veh HIST1H1D (11736915_at) / RFU CASKIN2 (11723855_a_at) / Fold change /veh CASKIN2 (11723855_a_at) / RFU LOC730098 (11760151_x_at) / Fold change /veh LOC730098 (11760151_x_at) / RFU OR4N2 (11742367_at) / Fold change /veh OR4N2 (11742367_at) / RFU PRRT2 (11749266_a_at) / Fold change /veh PRRT2 (11749266_a_at) / RFU SNX32 (11753110_a_at) / Fold change /veh SNX32 (11753110_a_at) / RFU CDHR5 (11726645_a_at) / Fold change /veh CDHR5 (11726645_a_at) / RFU RCAN1 (11760418_a_at) / Fold change /veh RCAN1 (11760418_a_at) / RFU FAM167A (11723789_a_at) / Fold change /veh FAM167A (11723789_a_at) / RFU FAM26E (11764081_at) / Fold change /veh FAM26E (11764081_at) / RFU ISYNA1 (11749810_s_at) / Fold change /veh ISYNA1 (11749810_s_at) / RFU ACY1 (11761880_at) / Fold change /veh ACY1 (11761880_at) / RFU 11764098_at / Fold change /veh 11764098_at / RFU SAMD14 (11745864_x_at) / Fold change /veh SAMD14 (11745864_x_at) / RFU NPB (11741838_a_at) / Fold change /veh NPB (11741838_a_at) / RFU TMPRSS6 (11731388_a_at) / Fold change /veh TMPRSS6 (11731388_a_at) / RFU KRTAP10-2 (11738614_at) / Fold change /veh KRTAP10-2 (11738614_at) / RFU ARHGAP8 /// PRR5-ARHGAP8 (11727945_x_at) / Fold change /veh ARHGAP8 /// PRR5-ARHGAP8 (11727945_x_at) / RFU KRTAP5-7 /// NADSYN1 (11734609_at) / Fold change /veh KRTAP5-7 /// NADSYN1 (11734609_at) / RFU RASL12 (11751679_a_at) / Fold change /veh RASL12 (11751679_a_at) / RFU CDKN2B (11736163_a_at) / Fold change /veh CDKN2B (11736163_a_at) / RFU PRF1 (11729649_at) / Fold change /veh PRF1 (11729649_at) / RFU, ZNF638 /// ZNF638-IT1 / Fold change vs veh, ZNF638 /// ZNF638-IT1 / RFU, PANK3 / Fold change vs veh, PANK3 / RFU, SH3YL1 / Fold change vs veh, SH3YL1 / RFU, ZEB2 / Fold change vs veh, ZEB2 / RFU, NRIP1 / Fold change vs veh, NRIP1 / RFU, PTTG1IP / Fold change vs veh, PTTG1IP / RFU, CAPN2 / Fold change vs veh, CAPN2 / RFU, MED14 / Fold change vs veh, MED14 / RFU, SNORA58 / Fold change vs veh, SNORA58 / RFU, C1orf63 / Fold change vs veh, C1orf63 / RFU, LRRFIP1 / Fold change vs veh, LRRFIP1 / RFU, NDUFAF7 / Fold change vs veh, NDUFAF7 / RFU, SLC12A2 / Fold change vs veh, SLC12A2 / RFU, IBTK / Fold change vs veh, IBTK / RFU, ESF1 / Fold change vs veh, ESF1 / Fold change vs veh, TMEM50B / RFU, TAOK1 / Fold change vs veh, TAOK1 / RFU, ACBD3 / Fold change vs veh, ACBD3 / RFU, TMA16 / Fold change vs veh, TMA16 / RFU, RWDD3 / Fold change vs veh, RWDD3 / RFU, BCAT1 / Fold change vs veh, BCAT1 / RFU, EDEM3 / Fold change vs veh, EDEM3 / RFU, TMEM33 / Fold change vs veh, TMEM33 / RFU, WDR75 / Fold change vs veh, WDR75 / RFU, AHCTF1 / Fold change vs veh, AHCTF1 / RFU, TFRC / Fold change vs veh, TFRC / RFU, ZDHHC17 / Fold change vs veh, ZDHHC17 / RFU, NOM1 / Fold change vs veh, NOM1 / RFU, ARL8B / Fold change vs veh, ARL8B / RFU, ZBTB11 / Fold change vs veh, ZBTB11 / RFU, TAMM41 / Fold change vs veh, TAMM41 / RFU, KIAA1704 /// LOC100996395 / Fold change vs veh, KIAA1704 /// LOC100996395 / RFU, ING1 / Fold change vs veh, ING1 / RFU, TRMT61B / Fold change vs veh, TRMT61B / RFU, FUBP3 / Fold change vs veh, FUBP3 / RFU, TP53 / Fold change vs veh, TP53 / RFU, TNKS2 / Fold change vs veh, TNKS2 / RFU, ZFP14 / Fold change vs veh, ZFP14 / RFU, ACTR2 / Fold change vs veh, ACTR2 / RFU, PPP3R1 / Fold change vs veh, PPP3R1 / RFU, PIK3R1 / Fold change vs veh, PIK3R1 / RFU, HNRNPA1 / Fold change vs veh, HNRNPA1 / RFU, RNF170 / Fold change vs veh, RNF170 / RFU, ZNF28 / Fold change vs veh, ZNF28 / RFU, RNGTT / Fold change vs veh, RNGTT / RFU, OGT / Fold change vs veh, OGT / RFU, BRD1 / Fold change vs veh, BRD1 / RFU, MARS / Fold change vs veh, MARS / RFU, ZNF655 / Fold change vs veh, ZNF655 / RFU, FAHD1 / Fold change vs veh, FAHD1 / RFU, BDP1 / Fold change vs veh, BDP1 / RFU, LRRCC1 / Fold change vs veh, LRRCC1 / RFU, ARID1A / Fold change vs veh, ARID1A / RFU, ZNF146 / Fold change vs veh, ZNF146 / RFU, ZNF330 / Fold change vs veh, ZNF330 / RFU, GPN3 / Fold change vs veh, GPN3 / RFU, C9orf123 / Fold change vs veh, C9orf123 / RFU, N4BP2L2 / Fold change vs veh, N4BP2L2 / RFU, ARFIP1 / Fold change vs veh, ARFIP1 / RFU, FAM179B / Fold change vs veh, FAM179B / RFU, BCL10 / Fold change vs veh, BCL10 / RFU, UHRF1BP1L / Fold change vs veh, UHRF1BP1L / RFU, BET1 / Fold change vs veh, BET1 / RFU, CNOT2 / Fold change vs veh, CNOT2 / RFU, ZNF268 / Fold change vs veh, ZNF268 / Fold change vs veh, ZNF507 / RFU, DGCR2 / Fold change vs veh, DGCR2 / RFU, WDSUB1 / Fold change vs veh, WDSUB1 / Fold change vs veh, HSP90B1 /// MIR3652 / RFU, ADSS / Fold change vs veh, ADSS / RFU, GK / Fold change vs veh, GK / RFU, ZNF148 / Fold change vs veh, ZNF148 / RFU, TAF9 / Fold change vs veh, TAF9 / RFU, SLC1A5 / Fold change vs veh, SLC1A5 / RFU, SLMO2 / Fold change vs veh, SLMO2 / RFU, ABCC4 / Fold change vs veh, ABCC4 / RFU, LOC101060439 /// RAP1B / Fold change vs veh, LOC101060439 /// RAP1B / RFU, RFX7 / Fold change vs veh, RFX7 / RFU, GTPBP10 / Fold change vs veh, GTPBP10 / RFU, CNEP1R1 / Fold change vs veh, CNEP1R1 / RFU, BIVM-ERCC5 /// ERCC5 / Fold change vs veh, BIVM-ERCC5 /// ERCC5 / RFU, ILF3 / Fold change vs veh, ILF3 / RFU 11762660_at / Fold change /veh 11762660_at / RFU VCAN (11757783_s_at) / Fold change /veh VCAN (11757783_s_at) / RFU DDX43 (11728927_at) / Fold change /veh DDX43 (11728927_at) / RFU KRT8 (11758188_x_at) / Fold change /veh KRT8 (11758188_x_at) / RFU NKD1 (11759106_at) / Fold change /veh NKD1 (11759106_at) / RFU SRD5A1 (11742802_a_at) / Fold change /veh SRD5A1 (11742802_a_at) / RFU TPSAB1 /// TPSB2 (11721975_s_at) / Fold change /veh TPSAB1 /// TPSB2 (11721975_s_at) / RFU GSTM3 (11746129_a_at) / Fold change /veh GSTM3 (11746129_a_at) / RFU IL23R (11737362_x_at) / Fold change /veh IL23R (11737362_x_at) / RFU TMEM51 (11727254_a_at) / Fold change /veh TMEM51 (11727254_a_at) / RFU PIWIL2 (11732686_x_at) / Fold change /veh PIWIL2 (11732686_x_at) / RFU ORM1 (11744905_x_at) / Fold change /veh ORM1 (11744905_x_at) / RFU CCDC152 (11743942_at) / Fold change /veh CCDC152 (11743942_at) / RFU ECM1 (11717891_a_at) / Fold change /veh ECM1 (11717891_a_at) / RFU IL23R (11748794_a_at) / Fold change /veh IL23R (11748794_a_at) / RFU TNFAIP8L3 (11732012_x_at) / Fold change /veh TNFAIP8L3 (11732012_x_at) / RFU MBOAT4 (11741988_at) / Fold change /veh MBOAT4 (11741988_at) / RFU 11764193_at / Fold change /veh 11764193_at / RFU TMEM53 (11763286_at) / Fold change /veh TMEM53 (11763286_at) / RFU MAGEB2 (11727129_at) / Fold change /veh MAGEB2 (11727129_at) / RFU TMEM200A (11744735_a_at) / Fold change /veh TMEM200A (11744735_a_at) / RFU CCDC152 (11751479_a_at) / Fold change /veh CCDC152 (11751479_a_at) / RFU FAM211A (11726209_a_at) / Fold change /veh FAM211A (11726209_a_at) / RFU RGS16 (11746705_a_at) / Fold change /veh RGS16 (11746705_a_at) / RFU VCAN (11755009_s_at) / Fold change /veh VCAN (11755009_s_at) / RFU RHOB (11743442_s_at) / Fold change /veh RHOB (11743442_s_at) / RFU RGS16 (11720943_a_at) / Fold change /veh RGS16 (11720943_a_at) / RFU RGS16 (11720944_at) / Fold change /veh RGS16 (11720944_at) / RFU, VPS4B / Fold change vs veh, VPS4B / RFU, CREB1 / Fold change vs veh, CREB1 / RFU, DNAJC13 / Fold change vs veh, DNAJC13 / RFU, GNAQ / Fold change vs veh, GNAQ / RFU, CDK5R1 / Fold change vs veh, CDK5R1 / RFU, ZRANB3 / Fold change vs veh, ZRANB3 / RFU, CUL4A / Fold change vs veh, CUL4A / RFU, CCNY / Fold change vs veh, CCNY / RFU, UFL1 / Fold change vs veh, UFL1 / RFU, COG3 / Fold change vs veh, COG3 / RFU, DIAPH2 / Fold change vs veh, DIAPH2 / RFU, SKA2 / Fold change vs veh, SKA2 / RFU, AFF3 / Fold change vs veh, AFF3 / RFU, LMF1 / Fold change vs veh, LMF1 / RFU, IPO11 / Fold change vs veh, IPO11 / RFU, DFFB / Fold change vs veh, DFFB / RFU, FOXP1 / Fold change vs veh, FOXP1 / RFU, CARD8 / Fold change vs veh, CARD8 / RFU, STRN3 / Fold change vs veh, STRN3 / RFU, ADK / Fold change vs veh, ADK / RFU, RASSF2 / Fold change vs veh, RASSF2 / RFU, WIPF1 / Fold change vs veh, WIPF1 / RFU, LARP1B / Fold change vs veh, LARP1B / RFU, RASA1 / Fold change vs veh, RASA1 / RFU, RB1 / Fold change vs veh, RB1 / RFU, PPFIA1 / Fold change vs veh, PPFIA1 / RFU, MAT2A / Fold change vs veh, MAT2A / RFU, CCT5 / Fold change vs veh, CCT5 / RFU, WDR92 / Fold change vs veh, WDR92 / RFU, CUX1 / Fold change vs veh, CUX1 / RFU, TTC7A / Fold change vs veh, TTC7A / RFU, TMEM135 / Fold change vs veh, TMEM135 / RFU, DEPTOR / Fold change vs veh, DEPTOR / RFU, CPM / Fold change vs veh, CPM / RFU, DNAJB6 / Fold change vs veh, DNAJB6 / RFU, CACNA2D3 / Fold change vs veh, CACNA2D3 / RFU, DTX4 / Fold change vs veh, DTX4 / RFU, TFCP2 / Fold change vs veh, TFCP2 / RFU, GMCL1 /// GMCL1P1 / Fold change vs veh, GMCL1 /// GMCL1P1 / RFU, AEBP2 / Fold change vs veh, AEBP2 / RFU, SNHG1 /// SNORD22 /// SNORD25 /// SNORD26 /// SNORD27 /// SNORD28 /// SNORD29 /// SNORD31 / Fold change vs veh, SNHG1 /// SNORD22 /// SNORD25 /// SNORD26 /// SNORD27 /// SNORD28 /// SNORD29 /// SNORD31 / Fold change (Aza/veh), C12orf56 (ProbeSet 11735607_a_at) / Fold change (ACY-1035/veh), C12orf56 (ProbeSet 11735607_a_at) / Fold change (Aza/veh), FGFR1OP (ProbeSet 11751329_s_at) / Fold change (ACY-1035/veh), FGFR1OP (ProbeSet 11751329_s_at) / Fold change (Aza/veh), VPS36 (ProbeSet 11739960_a_at) / Fold change (ACY-1035/veh), VPS36 (ProbeSet 11739960_a_at) / RFU SYPL1 (11715823_x_at) / Fold change /veh SYPL1 (11715823_x_at) / RFU IGFBP7 (11715501_s_at) / Fold change /veh IGFBP7 (11715501_s_at) / RFU REEP3 (11722064_at) / Fold change /veh REEP3 (11722064_at) / RFU IGLL1 (11728026_x_at) / Fold change /veh IGLL1 (11728026_x_at): dose or concentration left out as unconfirmed
Details: MV-4-11 cells, 48 hours

Nc1ccc(-c2cccs2)cc1NC(=O)c1ccc2c(c1)cc(C1CC1)n2CCN1CCOCC1 [ACY-1035]
RFU TNFAIP8L3 (11732012_x_at): 8.37 RFU
